Square brackets hold non-standard residues; d marks the D form. Peptide text beside a SMILES is read from it. Cit = NC(=O)NCCC[C@H](N)C(=O)O
Assays:
MMP2 = target: T1, MMP2 (Homo sapiens, UniProt P08253); assay: Enzymolysis assay of polypeptides by MMP2 (RP-HPLC); type: biochemical; conditions: test polypeptide 100 µmol, activated MMP2, 37°C, 4 h
T1 sequence (P08253 110-660): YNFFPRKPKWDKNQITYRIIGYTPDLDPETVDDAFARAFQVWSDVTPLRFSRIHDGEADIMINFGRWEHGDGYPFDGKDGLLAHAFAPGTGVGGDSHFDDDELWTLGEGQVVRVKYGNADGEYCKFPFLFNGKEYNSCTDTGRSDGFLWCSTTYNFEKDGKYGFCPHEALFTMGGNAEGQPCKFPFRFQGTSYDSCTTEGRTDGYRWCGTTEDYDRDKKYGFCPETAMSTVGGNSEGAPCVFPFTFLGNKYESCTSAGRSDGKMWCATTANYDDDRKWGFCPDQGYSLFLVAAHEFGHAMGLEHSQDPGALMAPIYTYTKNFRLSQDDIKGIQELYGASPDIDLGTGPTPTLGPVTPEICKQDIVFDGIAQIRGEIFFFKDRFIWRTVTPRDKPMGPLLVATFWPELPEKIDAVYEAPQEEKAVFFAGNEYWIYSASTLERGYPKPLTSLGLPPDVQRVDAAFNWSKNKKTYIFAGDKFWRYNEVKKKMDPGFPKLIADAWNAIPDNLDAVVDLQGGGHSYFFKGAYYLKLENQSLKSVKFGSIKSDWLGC
Protocol: (§1) First, MMP2 or MMP9 enzyme solution having a final concentration of 200 µg/mL was mixed with 4 mM APMA at a ratio of 1:1, placed in a 37°C water bath and incubated for 24 h to activate the MMP2 or MMP9 enzyme solution. Subsequently, the test polypeptide having a final concentration of 100 µmol was incubated with the activated MMP2 or MMP9 enzyme solution in a 37°C water bath for 4 h. After the reaction was complete, an equal volume of acetonitrile solution was added thereto, followed by RP-HPLC analysis.
(§2) The enzymolysis efficiency of the polypeptide was calculated based on the peak areas of the target peak before and after enzymolysis. The formula is as follows: Enzymolysis efficiency = […] [formula]

MMP9 = MMP9 (Homo sapiens, UniProt P14780); assay: Enzymolysis assay of polypeptides by MMP9 (RP-HPLC); type: biochemical; conditions: polypeptide 100 µmol with activated MMP9, 37°C, 4 h, RP-HPLC peak areas
MMP9, sequence (P14780 107-707 limits assumed, species assumed): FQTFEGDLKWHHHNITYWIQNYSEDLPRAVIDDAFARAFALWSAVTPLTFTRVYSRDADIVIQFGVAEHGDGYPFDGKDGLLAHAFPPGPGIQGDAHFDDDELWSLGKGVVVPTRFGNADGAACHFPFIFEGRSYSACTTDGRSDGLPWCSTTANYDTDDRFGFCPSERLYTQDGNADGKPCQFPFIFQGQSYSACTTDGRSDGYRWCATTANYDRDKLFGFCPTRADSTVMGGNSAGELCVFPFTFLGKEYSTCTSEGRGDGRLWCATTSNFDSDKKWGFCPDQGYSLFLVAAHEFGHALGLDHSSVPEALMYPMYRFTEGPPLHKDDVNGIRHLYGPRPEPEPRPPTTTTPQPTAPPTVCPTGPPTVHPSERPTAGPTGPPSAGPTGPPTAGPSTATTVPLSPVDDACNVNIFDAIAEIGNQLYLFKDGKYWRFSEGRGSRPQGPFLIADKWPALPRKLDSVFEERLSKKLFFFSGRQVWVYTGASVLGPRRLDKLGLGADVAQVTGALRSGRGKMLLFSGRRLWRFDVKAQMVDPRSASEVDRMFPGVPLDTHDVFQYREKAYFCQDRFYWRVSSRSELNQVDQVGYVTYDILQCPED
Protocol: as §1, §2

Row | Structure (SMILES) | Enzymolysis efficiency (%) (MMP2) | Enzymolysis efficiency (%) (MMP9)
1 | CC(=O)N[C@@H](Cc1c[nH]cn1)C(=O)N[C@H](C(=O)N[C@@H](CC(C)C)C(=O)N[C@@H](CC(N)=O)C(=O)N[C@@H](CC(C)C)C(=O)N[C@H](C(=O)N[C@@H](CCCNC(N)=O)C(N)=O)C(C)C)C(C)C [Compound 1-P2] (Ac-HVLNLV[Cit]-NH2) | 14.28 | 
2 | CC(=O)N[C@H](C(=O)N1CCC[C@H]1C(=O)N[C@@H](CC(C)C)C(=O)N[C@@H](CO)C(=O)N[C@@H](CC(C)C)C(=O)N[C@H](C(=O)N[C@@H](CCCNC(N)=O)C(N)=O)C(C)C)C(C)C [Compound 1-P3] (Ac-VPLSLV[Cit]-NH2) | 49.85 | 51.44
3 | CC[C@H](C)[C@H](NC(C)=O)C(=O)N1CCC[C@H]1C(=O)N[C@H](C(=O)N[C@@H](CO)C(=O)N[C@@H](CC(C)C)C(=O)N[C@H](C(=O)N[C@@H](CCCNC(N)=O)C(N)=O)C(C)C)C(C)C [Compound 1-P4] (Ac-IPVSLV[Cit]-NH2) | 21.87 | 18.84
4 | CC(=O)NCC(=O)N1CCC[C@H]1C(=O)N[C@@H](CC(C)C)C(=O)N[C@@H](CO)C(=O)N[C@@H](CC(C)C)C(=O)N[C@H](C(=O)N[C@@H](CCCNC(N)=O)C(N)=O)C(C)C [Compound 1-P5] (Ac-GPLSLV[Cit]-NH2) | 52.03 | 54.80
5 | CC(=O)NCC(=O)N1CCC[C@H]1C(=O)N[C@@H](C)C(=O)N[C@@H](CO)C(=O)N[C@@H](CC(C)C)C(=O)N[C@H](C(=O)N[C@@H](CCCNC(N)=O)C(N)=O)C(C)C [Compound 1-P6] (Ac-GPASLV[Cit]-NH2) | 86.72 | 28.79
6 | CC(=O)NCC(=O)N1CCC[C@H]1C(=O)N[C@@H](C)C(=O)NCC(=O)N[C@@H](CC(C)C)C(=O)N[C@H](C(=O)N[C@@H](CCCNC(N)=O)C(N)=O)C(C)C [Compound 1-P7] (Ac-GPAGLV[Cit]-NH2) | 90.29 | 25.55
7 | CC(=O)NCC(=O)N1CCC[C@H]1C(=O)N[C@@H](CCC(N)=O)C(=O)NCC(=O)N[C@@H](CC(C)C)C(=O)N[C@H](C(=O)N[C@@H](CCCNC(N)=O)C(N)=O)C(C)C [Compound 1-P8] (Ac-GPQGLV[Cit]-NH2) | 54.71 | 29.30
8 | CC(=O)NCC(=O)N1CCC[C@H]1C(=O)N[C@@H](CC(C)C)C(=O)NCC(=O)N[C@@H](CC(C)C)C(=O)N[C@H](C(=O)N[C@@H](CCCNC(N)=O)C(N)=O)C(C)C [Compound 1-P9] (Ac-GPLGLV[Cit]-NH2) | 81.75 | 68.34
9 | CC(=O)NCC(=O)N1CCC[C@H]1C(=O)N[C@@H](CO)C(=O)NCC(=O)N[C@@H](CC(C)C)C(=O)N[C@H](C(=O)N[C@@H](CCCNC(N)=O)C(N)=O)C(C)C [Compound 1-P10] (Ac-GPSGLV[Cit]-NH2) | 75.95 | 27.93
10 | CC(=O)NCC(=O)N1CCC[C@H]1C(=O)N[C@@H](CCCNC(=N)N)C(=O)NCC(=O)N[C@@H](CC(C)C)C(=O)N[C@H](C(=O)N[C@@H](CCCNC(N)=O)C(N)=O)C(C)C [Compound 1-P11] (Ac-GPRGLV[Cit]-NH2) | 86.82 | 81.51
11 | CC(=O)NCC(=O)N1CCC[C@H]1C(=O)N[C@@H](C)C(=O)N[C@@H](C)C(=O)N[C@@H](CC(C)C)C(=O)N[C@H](C(=O)N[C@@H](CCCNC(N)=O)C(N)=O)C(C)C [Compound 1-P12] (Ac-GPAALV[Cit]-NH2) | 38.94 | 20.93
12 | CC(=O)NCC(=O)N1CCC[C@H]1C(=O)N[C@@H](CO)C(=O)N[C@@H](C)C(=O)N[C@@H](CC(C)C)C(=O)N[C@H](C(=O)N[C@@H](CCCNC(N)=O)C(N)=O)C(C)C [Compound 1-P13] (Ac-GPSALV[Cit]-NH2) | 90.13 | 45.08
13 | CC(=O)N1CCC[C@H]1C(=O)N[C@@H](CCCNC(=N)N)C(=O)NCC(=O)N[C@@H](CC(C)C)C(=O)N[C@H](C(=O)N[C@@H](CCCNC(N)=O)C(N)=O)C(C)C [Compound 2-P1, PRGLVCit] (Ac-PRGLV[Cit]-NH2) | 80.31 | 93.67
14 | CC(=O)N1CCC[C@H]1C(=O)N[C@@H](CCCNC(=N)N)C(=O)N[C@@H](CO)C(=O)N[C@@H](CC(C)C)C(=O)N[C@H](C(=O)N[C@@H](CCCNC(N)=O)C(N)=O)C(C)C [Compound 2-P2] (Ac-PRSLV[Cit]-NH2) | 53.20 | 79.34
15 | CC(=O)N1CCC[C@H]1C(=O)N[C@@H](CCCNC(=N)N)C(=O)N[C@@H](CC(N)=O)C(=O)N[C@@H](CC(C)C)C(=O)N[C@H](C(=O)N[C@@H](CCCNC(N)=O)C(N)=O)C(C)C [Compound 2-P3] (Ac-PRNLV[Cit]-NH2) | 66.36 | 97.39
16 | CC(=O)N1CCC[C@H]1C(=O)N[C@@H](CCCNC(=N)N)C(=O)N1CCC[C@H]1C(=O)N[C@@H](CC(C)C)C(=O)N[C@H](C(=O)N[C@@H](CCCNC(N)=O)C(N)=O)C(C)C [Compound 2-P4] (Ac-PRPLV[Cit]-NH2) | 46.14 | 61.01
17 | CC(=O)N1CCC[C@H]1C(=O)N[C@@H](CCCNC(N)=O)C(=O)NCC(=O)N[C@@H](CC(C)C)C(=O)N[C@H](C(=O)N[C@@H](CCCNC(N)=O)C(N)=O)C(C)C [Compound 2-P5] (Ac-P[Cit]GLV[Cit]-NH2) | 61.03 | 68.91
18 | CC(=O)N1CCC[C@H]1C(=O)N[C@@H](CCCNC(N)=O)C(=O)N1CCC[C@H]1C(=O)N[C@@H](CC(C)C)C(=O)N[C@H](C(=O)N[C@@H](CCCNC(N)=O)C(N)=O)C(C)C [Compound 2-P6] (Ac-P[Cit]PLV[Cit]-NH2) | 36.21 | 36.08
19 | CC(=O)NCC(=O)N1CCC[C@H]1C(=O)N[C@@H](CCCNC(=N)N)C(=O)N[C@@H](CO)C(=O)N[C@@H](CC(C)C)C(=O)N[C@H](C(=O)N[C@@H](CCCNC(N)=O)C(N)=O)C(C)C [Compound 2-P7] (Ac-GPRSLV[Cit]-NH2) | 62.64 | 77.95
20 | CC(=O)NCC(=O)N1CCC[C@H]1C(=O)N[C@@H](CCCNC(=N)N)C(=O)N1CCC[C@H]1C(=O)N[C@@H](CC(C)C)C(=O)N[C@H](C(=O)N[C@@H](CCCNC(N)=O)C(N)=O)C(C)C [Compound 2-P8] (Ac-GPRPLV[Cit]-NH2) | 55.07 | 62.58
21 | CC(=O)NCC(=O)N1CCC[C@H]1C(=O)N[C@@H](CCCNC(=N)N)C(=O)N[C@@H](CC(N)=O)C(=O)N[C@@H](CC(C)C)C(=O)N[C@H](C(=O)N[C@@H](CCCNC(N)=O)C(N)=O)C(C)C [Compound 2-P9] (Ac-GPRNLV[Cit]-NH2) | 77.00 | 100.00
22 | CC(=O)NCC(=O)N1CCC[C@H]1C(=O)N[C@@H](CCCNC(N)=O)C(=O)NCC(=O)N[C@@H](CC(C)C)C(=O)N[C@H](C(=O)N[C@@H](CCCNC(N)=O)C(N)=O)C(C)C [Compound 2-P10] (Ac-GP[Cit]GLV[Cit]-NH2) | 71.24 | 80.34
23 | CC(=O)NCC(=O)N1CCC[C@H]1C(=O)N[C@@H](CCCNC(N)=O)C(=O)N1CCC[C@H]1C(=O)N[C@@H](CC(C)C)C(=O)N[C@H](C(=O)N[C@@H](CCCNC(N)=O)C(N)=O)C(C)C [Compound 2-P11] (Ac-GP[Cit]PLV[Cit]-NH2) | 40.95 | 45.82
24 | CC(=O)N[C@@H](Cc1c[nH]cn1)C(=O)N1CCC[C@H]1C(=O)N[C@@H](CCCNC(=N)N)C(=O)NCC(=O)N[C@@H](CC(C)C)C(=O)N[C@H](C(=O)N[C@@H](CCCNC(N)=O)C(N)=O)C(C)C [Compound 2-P12] (Ac-HPRGLV[Cit]-NH2) | 77.58 | 95.73
25 | CC(=O)N[C@@H](Cc1c[nH]cn1)C(=O)N1CCC[C@H]1C(=O)N[C@@H](CCCNC(=N)N)C(=O)N[C@@H](CO)C(=O)N[C@@H](CC(C)C)C(=O)N[C@H](C(=O)N[C@@H](CCCNC(N)=O)C(N)=O)C(C)C [Compound 2-P13] (Ac-HPRSLV[Cit]-NH2) | 57.42 | 81.06
26 | CC(=O)N[C@@H](Cc1c[nH]cn1)C(=O)N1CCC[C@H]1C(=O)N[C@@H](CCCNC(=N)N)C(=O)N1CCC[C@H]1C(=O)N[C@@H](CC(C)C)C(=O)N[C@H](C(=O)N[C@@H](CCCNC(N)=O)C(N)=O)C(C)C [Compound 2-P14] (Ac-HPRPLV[Cit]-NH2) | 54.65 | 58.33

— patent EP4796557A1, “POLYPEPTIDE, BIOACTIVE CONJUGATE, AND PREPARATION METHOD THEREFOR AND USE THEREOF” (priority 2023, dated 2025)
